Measured values from patent publication US9034895B2, “Composition and methods for treating glioblastoma” (University of Washington Through its Center for …, priority 2010, dated 2015).

Legend:
[1] = test system: mouse neurons in primary culture; assay: Toxic profile in neurons in primary culture; type: cell-based
CB1 = target: T1, CB1 (Mus musculus, UniProt P47746); assay: Radioligand competition binding, [3H]-CP55940, CB1-expressing HEK293 membranes
T1 construct: plasmids containing full coding region of mouse CB1 and CB2; expressed in transfected cells
T1 sequence (P47746 whole entry): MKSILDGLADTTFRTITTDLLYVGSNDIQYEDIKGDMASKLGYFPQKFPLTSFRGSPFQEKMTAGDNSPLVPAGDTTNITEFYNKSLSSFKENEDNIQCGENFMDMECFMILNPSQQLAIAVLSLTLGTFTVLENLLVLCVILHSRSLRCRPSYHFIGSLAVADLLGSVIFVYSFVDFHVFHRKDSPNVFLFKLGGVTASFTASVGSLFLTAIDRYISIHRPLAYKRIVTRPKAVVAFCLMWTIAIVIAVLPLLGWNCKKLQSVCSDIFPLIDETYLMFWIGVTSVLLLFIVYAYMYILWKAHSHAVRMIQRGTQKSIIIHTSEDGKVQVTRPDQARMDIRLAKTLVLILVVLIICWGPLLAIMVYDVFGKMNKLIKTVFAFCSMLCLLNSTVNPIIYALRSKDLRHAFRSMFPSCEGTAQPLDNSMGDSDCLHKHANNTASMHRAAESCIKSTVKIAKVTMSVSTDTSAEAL
Experimental: (§1) Stable CB1 and CB2 expressing HEK293 cell lines were generated using plasmids containing full coding region of mouse CB1 and CB2.
(§2) Fragments were amplified from total RNA of cell lines by reverse transcriptase-polymerase chain reaction (RT-PCR). Sequence was confirmed and the fragment was cloned into the EcoRI site of the pIRES2-eGFP-express vector. Cells were grown to approximately 80% confluence in 10 cm cell culture dishes, transfected with the cDNA pIRES-eGFP-vector containing the murine CB1 or CB2 receptor using LipofectAMINE™ 2000 reagent in the serum-free media Opti-MEM 1 according to the manufacturer's description. Cells were subject to FACS sorting 48 h after transfection and single cell sorted based on dsRed expression into 96-well plates. Of the dsRed expressing positive clones, 3 were validated for CB1 and CB2 protein expression by radioligand binding analysis (methods discussed below).
(§3) Cells were grown to 90% confluence, rinsed twice with 1×PBS and stored at −80° C. until further use. To prepare crude cellular membrane fractions, dishes were removed from −80° C. and thawed at room temperature for 5 min. Once thawed, cells were lysed with ice-cold homogenization buffer (50 mM Tris, 1 mM EDTA, 3 mM MgCl2) and gently scraped from the dish. Total cell lysates from 3-5 dishes were collected on ice in 3 ml of ice-cold homogenization buffer. Cells were homogenized at 6,500 rpm (PRO Scientific, Oxford, Conn.) twice for 10 sec and centrifuged at 11,500 rpm for 20 min at 4° C. Supernatants were discarded and cell pellets were resuspended in homogenization buffer and triturated 10 times in ice-cold homogenization buffer. Crude cellular membrane homogenates were stored at −80° C. until further use. On the day of experiments, frozen homogenates were thawed at room temperature, gently triturated 10 times and subsequently dounce homogenized in a 7 ml glass tissue grinder (Wheaton Science Products, Millville, N.J.) by 5 strokes while on ice. […]

CB2 = target: T2, CB2 (Mus musculus, UniProt P47936); assay: Radioligand competition binding, [3H]-CP55940, CB2-expressing HEK293 membranes
T2 construct: plasmids containing full coding region of mouse CB1 and CB2; expressed in transfected cells
T2 sequence (P47936 whole entry): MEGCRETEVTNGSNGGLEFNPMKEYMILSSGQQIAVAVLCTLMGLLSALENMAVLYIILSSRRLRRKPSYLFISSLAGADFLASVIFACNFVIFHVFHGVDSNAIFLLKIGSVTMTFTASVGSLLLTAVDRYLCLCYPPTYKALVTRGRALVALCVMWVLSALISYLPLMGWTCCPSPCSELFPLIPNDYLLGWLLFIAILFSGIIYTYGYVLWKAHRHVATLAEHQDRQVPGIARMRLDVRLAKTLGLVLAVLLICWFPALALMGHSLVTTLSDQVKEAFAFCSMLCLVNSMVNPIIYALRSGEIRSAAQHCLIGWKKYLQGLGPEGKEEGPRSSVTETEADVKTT
Experimental: as §1, §2, §3

T98g cells = assay: Cell viability assay (WST-1), toxic potency and efficacy at T98g cells; type: cell-based; settings: Homo sapiens, 72 h
Experimental: Cells were plated media supplemented with 10% serum in 96-well plates (10^4 cells per wellI; 0.1 ml per well). Once they reached ˜70% confluence, they were rinsed with PBS and kept for an additional 24 hrs in media supplemented with 1% serum, at which time drugs or vehicle (DMSO, 0.1%, prepared in 10 μl serum-free media) were directly added to each well. After 3 days, cell viability was assessed using the Cell Proliferation Reagent WST-1 (Roche, Indianapolis, Ind.). Briefly, WST-1 reagent (10 μl) was added to each well for 3 hrs at 37° C. with 5% CO2 and WST-1 products were read at 450 nm using Packard SpectraCount™.
Because the strongest toxic effect of WIN55212-2 was measured in T98g cells, these cells are used as readout to study the structure activity relationship (SAR) of AAI compounds at inducing cell death through AAI receptors.

[2] = test system: endothelial cell line bEnd.3; assay: Toxic profile in endothelial cell line; type: cell-based
Experimental: (§4) JWH-451 was tested for toxicity in cells expressing GPR124.

[3] = test system: cardiac and motorneuron progenitors; assay: Toxic profile in progenitor cells; type: cell-based; settings: compared with astrocytoma cell lines
Experimental: as §4

`CCn1c(C)c(C(=O)c2ccc(C)c3ccccc23)c2ccccc21` [JWH-451, 1-Ethyl-2-methyl-3-(4-methyl-1-napthoyl)indole] was tested, and the “viability of mouse neurons in primary culture” value [1] was “did not affect the viability”, the “competition for [3H]-CP55940 binding at CB1” value (CB1; FIG. 2 (CB1 not shown)) was “does not” and the “lower affinity at CB1 receptors than WIN55212-2” value (CB1; relative to WIN55212-2) was 100 fold. For the same compound, the “competition for [3H]-CP55940 binding at CB2” value (CB2; FIG. 2) was “does not”, the “lower affinity at CB2 receptors than WIN55212-2” value (CB2; relative to WIN55212-2) was 100 fold and the Emax (T98g cells; read-out: Toxic potency at T98g cells (percent efficacy)) was 81%. The EC50 (T98g cells; read-out: Toxic potency at T98g cells potency μM) was 1.1 µM, the “viability of endothelial cell line bEnd.3” value [2] was “did not affect the viability” and the “toxic effect on cardiac and motorneuron progenitors” value [3] was “much less toxic effect”.
